Entries after “also recorded” stand apart in the source; their conditions may differ.
Columns and labels:
[1] = Stability in mouse liver microsome; format: in vitro ADME; settings: liver microsomes, read-out: T1/2 in mouse liver microsome
Caco-2 permeability = format: in vitro ADME; settings: human, Caco-2
Caco-2 mono-cell layer = assay: Caco-2 permeability; format: in vitro ADME
[2] = Pharmacokinetic study in mice (plasma, brain, CSF); format: in vivo, mouse; settings: for AUC(0-inf) / AUC(0-t) / half-life: male, C57BL/6, mouse; for half-life: read-out: metabolic half-life (converted)
Description: PK profiling was outsourced and undertaken by Shanghai ChemPartner Co., Ltd. All animal experiments performed were conducted in compliance with the Institutional Animal Care and Use Committee (IACUC) and the Office of Laboratory Animal Welfare (OLAW) guidelines. Six- to eight-week-old C57BL/6 male mice purchased from Jihui Laboratory Animal Co. LTD were used in the study. […] The animals were restrained manually at the designated time points (0.083, 0.25, 0.5, 1, 2, 4, and 8 h); approximately, 110 μL of blood sample was collected via facial vein into K2EDTA tubes. Three mice per time point were used, resulting in a total of 21 mice for each administration route. The blood sample was put on ice and centrifuged at 2000 g for 5 min to obtain the plasma sample within 15 min. The plasma, brain, CSF samples were stored at approximately −70° C. until analysis. A 30 μL aliquot of plasma was added with 200 μL of internal standard (Glipozode, 40 ng/mL) in MeCN with 5% citri. The mixture was then vortexed for 1 min and then centrifuged for 10 min at 5800 rpm. The supernatant (100 μL) was transferred to a new plate. The solvent (1 μL) was injected to LC-MS/MS. LC-MS/MS instrument used: SCIEX LC-MS/MS-49 (Triple Quad 6500+). Data was analyzed by WinNonLin and Microsoft Excel.

[3] = CSF, intravenous 5 mg/Kg single dose
[4] = brain, gavage (oral) 30 mg/Kg single dose
[5] = brain, intraperitoneal 30 mg/Kg single dose
[6] = brain, intravenous 5 mg/Kg single dose
[7] = ip, brain, intraperitoneal 30 mg/Kg single dose
[8] = gavage (oral) 30 mg/Kg single dose
[9] = intraperitoneal 30 mg/Kg single dose

Structure (SMILES): CNc1nc(Nc2ccc(C(=O)N3CCN(C[C@H]4CC[C@H](CSC(C)(C)[C@H](NC(=O)C5(F)CC5)C(=O)N5C[C@H](O)CC5C(=O)NCc5ccc(-c6scnc6C)cc5)CC4)CC3)cc2OC)ncc1Cl (stereo partly drawn) [XL01126, (2S,4R)-1-((R)-3-((((1R,4R)-4-((4-(4-((5-chloro-4-(methylamino)pyrimidin-2-yl)amino)-3-methoxybenzoyl)piperazin-1-yl)methyl)cyclohexyl)methyl)thio)-2-(1-fluorocyclopropane-1-carboxamido)-3-methylbutanoyl)-4-hydroxy-N-(4-(4-methylthiazol-5-yl)benzyl)pyrrolidine-2-carboxamide]
- half-life [1]: 3.65 min
- Papp A→B (Caco-2 permeability; A − B): < 0.74 ×10⁻⁶ cm/s
- Papp B→A (Caco-2 permeability; B − A): < 1.43 ×10⁻⁶ cm/s
- penetration of Caco-2 mono-cell layer (in words) (Caco-2 mono-cell layer): can penetrant Caco-2 mono-cell layer; also recorded: can penetrate Caco-2 mono-cell layer
- maximum concentration in cerebrospinal fluid (CSF) [2, 3]: 27.4 ng/mL
- time of maximum concentration in CSF [2, 3]: 0.083 h
- maximum concentration in brain tissue [2, 4]: 27 ng/mL
- time of maximum concentration in brain tissue [2, 4]: 2 h
- maximum concentration in brain tissue [2, 5]: 218 ng/mL
- time of maximum concentration in brain tissue [2, 5]: 0.5 h
- maximum concentration in brain tissue [2, 6]: 155 ng/mL
- time of maximum concentration in brain tissue [2, 6]: 0.083 h
- reaches CSF (in words) ([2]; intraperitoneal 30 mg/Kg and orally 30 mg/Kg): also reaches CSF
- blood brain barrier penetration (in words) ([2]; intravenous 5 mg/Kg, intraperitoneal 30 mg/Kg, oral 30 mg/Kg): capable of penetrating blood brain barrier; also recorded: can penetrant blood brain barrier
- AUC(0-inf) [2, 3]: 240 ng·h/mL
- AUC(0-t) [2, 3]: 107 ng·h/mL
- half-life [2, 3]: 8.59 h
- AUC(0-inf) [2, 4]: 402 ng·h/mL
- AUC(0-t) [2, 4]: 142 ng·h/mL
- half-life [2, 4]: 10.7 h
- AUC(0-inf) [2, 6]: 349 ng·h/mL
- AUC(0-t) [2, 6]: 258 ng·h/mL
- half-life [2, 6]: 3.67 h
- AUC(0-inf) [2, 7]: 884 ng·h/mL
- AUC(0-t) [2, 7]: 752 ng·h/mL
- half-life [2, 7]: 2.79 h
- maximum plasma concentration [2, 8]: 3620 ng/mL
- time of maximum plasma concentration [2, 8]: 2 h
- maximum plasma concentration [2, 9]: 7700 ng/mL
- time of maximum plasma concentration [2, 9]: 0.25 h
